Reference: patent publication US5789434A, “Derivatives of substituted 4-biarylbutyric acid as matrix metalloprotease inhibitors” (priority 1995, dated 1998)
pIC50: −log10 of the molar value.

Experiments:
Type in all cases: biochemical
[1] = molecular target: T1, MMP-3 (Homo sapiens, UniProt P08254); experiment: Automated MMP Profiling Assay, MMP-3 fluorogenic; settings: for pIC50: 96-well automated, P218
T1 construct: Truncated Prostromelysin-257 was expressed in a soluble form in E.coli; made in house; host or cells: E. coli
Source text: This assay with each invention compound was run with the three enzymes MMP-3, MMP-9 and MMP-2 in parallel as adapted for a 96-well microtitre plate using a Hamilton A® workstation.

[2] = molecular target: T2, MMP-2 (Homo sapiens, UniProt P08253); experiment: Automated MMP Profiling Assay, MMP-2 fluorogenic; settings: for pIC50: 96-well automated, P218, read-out: MMP-2 Fluorogenic IC50 (profiling)
T2 sequence (P08253 110-660): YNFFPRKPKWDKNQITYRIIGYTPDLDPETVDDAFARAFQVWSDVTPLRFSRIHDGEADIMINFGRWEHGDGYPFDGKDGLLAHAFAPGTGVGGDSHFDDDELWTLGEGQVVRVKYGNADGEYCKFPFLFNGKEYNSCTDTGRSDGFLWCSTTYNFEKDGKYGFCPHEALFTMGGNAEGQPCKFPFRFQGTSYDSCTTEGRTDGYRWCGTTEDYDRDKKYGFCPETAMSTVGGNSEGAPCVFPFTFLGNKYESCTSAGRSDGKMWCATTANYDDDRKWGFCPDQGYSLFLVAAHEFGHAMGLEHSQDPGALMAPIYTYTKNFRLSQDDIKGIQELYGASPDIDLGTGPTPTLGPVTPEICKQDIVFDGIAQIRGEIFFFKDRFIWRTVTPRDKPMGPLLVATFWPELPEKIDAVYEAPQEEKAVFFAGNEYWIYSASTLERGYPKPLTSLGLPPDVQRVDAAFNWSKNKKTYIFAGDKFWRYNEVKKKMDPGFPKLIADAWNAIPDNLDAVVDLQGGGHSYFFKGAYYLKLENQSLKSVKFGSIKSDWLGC

[3] = molecular target: T3, MMP-9 (Homo sapiens, UniProt P14780); experiment: Automated MMP Profiling Assay, MMP-9 fluorogenic; settings: for pIC50: 96-well automated, P218
T3 construct: from tissue; host or cells: human polymorphonuclear leukocytes (PMN) from whole blood (New York Blood Center), PMA-stimulated supernatant
Method: Briefly, polymorphonuclear leukocytes (PMN) preparations were isolated as described above from 3 or more units of freshly drawn whole blood obtained from the New York Blood Center (New York, N.Y.). Cells were resuspended in phosphate buffered saline (PBS) containing 100 ng/ml phorbol myristate acetate (PMA) in the presence of 50 mM diisopropylfluorophospate (DFP), 1 μg/ml leupeptin and aprotinin, and 1 mg/ml catalase for 1 hr at 37° C. Supernatants were collected by centrifugation (300×g) and the samples were frozen at -70° C. All chromatographic methods were performed at 4° C. Thawed samples were concentrated 5-fold using an Amicon chamber equipped with a YM-10 membrane. The concentrate was pressure dialyzed against 0.02M Tris-HCl, 0.1M NaCl, 1 mM CaCl2, 1 μM ZnCl2, 0.001% Brij-35, 0.02% sodium azide (NaN3), pH 7.5 and applied to DEAE ion exchange chromatography resin which was previously equilibrated with the same buffer at a flow rate of 0.4 ml/min. The column was extensively washed with the same buffer and gelatinase was eluted as 4 ml fractions from the column with 0.02M Tris-HCl, 0.5M NaCl, 1 mM CaCl2, 1 μM ZnCl2, 0.001% Brij-35, 0.02% NaN3, pH 7.5. Gelatinase containing fractions were observed by gelatin zymography (see below), loaded onto a gelatin agarose affinity resin and washed with the same buffer. Gelatinase activity was eluted at a flow rate of 1 ml/min from the column as 1 ml fractions with 0.02M Tris-HCl, 1M NaCl, 1 mM CaCl2, 1 μM ZnCl2, 0.001% Brij-35, 0.02% NaN3, pH 7.5 containing 10% dimethyl sulfoxide (DMSO). The fractions containing gelatinase activity were pooled and dialyzed against 0.005M Tris-HCl, 5 mM NaCl, 0.5 mM CaCl2, 0.1 μM ZnCl2, 0.001% Brij-35, pH 7.4. The protein content associated with material was determined with a micro-BCA assay (Pierce, Rockford, Ill.), lyophilized and reconstituted to a desired working concentration (100 μg/ml).
This assay was run with a protocol analogous to that reported for MMP-3 inhibition using the synthetic peptide P218 and each of the three enzymes and measuring quenched fluorescence. This assay with each invention compound was run with the three enzymes MMP-3, MMP-9 and MMP-2 in parallel as adapted for a 96-well microtitre plate using a Hamilton A® workstation.

T3 sequence (P14780 107-707 limits assumed): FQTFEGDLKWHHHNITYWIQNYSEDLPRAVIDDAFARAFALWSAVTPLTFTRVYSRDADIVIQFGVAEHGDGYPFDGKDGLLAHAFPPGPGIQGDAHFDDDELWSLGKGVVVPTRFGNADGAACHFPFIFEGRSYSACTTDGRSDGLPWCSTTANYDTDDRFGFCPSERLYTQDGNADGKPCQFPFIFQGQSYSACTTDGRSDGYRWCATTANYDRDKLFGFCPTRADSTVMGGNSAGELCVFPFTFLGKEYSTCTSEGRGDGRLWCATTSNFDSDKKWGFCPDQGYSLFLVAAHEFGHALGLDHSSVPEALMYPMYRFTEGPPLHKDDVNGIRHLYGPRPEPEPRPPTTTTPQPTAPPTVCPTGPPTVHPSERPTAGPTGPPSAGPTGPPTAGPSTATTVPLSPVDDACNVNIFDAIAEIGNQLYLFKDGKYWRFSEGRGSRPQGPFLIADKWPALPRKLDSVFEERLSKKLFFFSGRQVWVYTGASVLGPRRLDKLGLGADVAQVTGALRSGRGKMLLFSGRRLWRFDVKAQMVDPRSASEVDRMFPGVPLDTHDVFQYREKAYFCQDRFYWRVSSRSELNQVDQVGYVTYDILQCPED
T1 sequence (P08254 100-274 limits assumed): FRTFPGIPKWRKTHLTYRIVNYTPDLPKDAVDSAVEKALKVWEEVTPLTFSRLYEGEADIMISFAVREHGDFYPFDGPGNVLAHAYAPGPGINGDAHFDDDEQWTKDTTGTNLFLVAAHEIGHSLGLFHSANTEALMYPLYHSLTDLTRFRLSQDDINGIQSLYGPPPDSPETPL

Compound | pIC50 [1] | pIC50 [2] | pIC50 [3] | inhibition at 5 µM [1] | inhibition at 5 µM ([2]; at 5 μM) | inhibition at 5 µM [3]
CCCSC[C@@H]1CC[C@H](C(=O)c2ccc(-c3ccc(Cl)cc3)cc2)[C@H]1C(=O)O (relative stereo) [Example 374, Cyclopentanecarboxylic acid, 2-[(4'-chloro[1,1'-biphenyl]-4-yl)carbonyl]-5-[(propylthio)methyl]-, (1α,2β,5β)-] | 7.27 | 7.47 | 6.57 |  |  | 
Cc1cccc(C(=O)OC[C@@H]2CC[C@H](C(=O)c3ccc(-c4ccc(Cl)cc4)cc3)[C@H]2C(=O)O)c1 (relative stereo) [Example 379, Benzoic acid, 3-methyl-, [2-carboxy-3-[(4'-chloro[1,1'-biphenyl]-4-yl)carbonyl]cyclopentyl]methyl ester, (1α,2β,3α)-] | 7.20 | 7.04 | 7.32 |  |  | 
O=C(O)[C@H]1[C@@H](SCc2ccccc2)CC[C@@H]1C(=O)c1ccc(-c2ccc(Cl)cc2)cc1 (relative stereo) [Example 440, Cyclopentanecarboxylic acid, 2-[(4'-chloro[1,1'-biphenyl]-4-yl)carbonyl]-5-[(phneylmethyl)thio]-, (1α,2β,5α)-] | 7.24 | 7.37 | 6.42 |  |  | 
NC(=O)c1ccc(COc2ccc(-c3ccc(C(=O)CC(CCCc4ccccc4)C(=O)O)cc3)cc2)cc1 (stereo not drawn) [Example 112, [1,1'-Biphenyl]-4-butanoic acid, 4'-[[4-(aminocarbonyl)phenyl]methoxy]-γ-oxo-α-(3-phenylpropyl)-] | 7.52 | 7.96 | 6.05 |  |  | 
O=C(O)[C@H]1[C@H](CN2C(=O)c3ccccc3C2=O)CC[C@@H]1C(=O)c1ccc(-c2ccc(Cl)cc2)cc1 (relative stereo) [Example 360, trans-5-[4-(4-chlorophenyl)phenylcarbonyl]-trans-2-phthalimidomethylcyclopentanecarboxylic acid] | 8.26 | 8.84 | 9.03 |  |  | 
CN(C)C(=O)c1ccccc1SCC(CC(=O)c1ccc(-c2ccc(Cl)cc2)cc1)C(=O)O (stereo not drawn) [Example 436, [1,1'-Biphenyl]-4-butanoic acid, 4'-chloro-α-[[[2-[(dimethylamino)carbony]phenyl]thio]methyl]-γ-oxo-] | 6.80 | 6.54 | 6.28 |  |  | 
O=C(NC[C@@H]1CC[C@H](C(=O)c2ccc(-c3ccc(Cl)cc3)cc2)[C@H]1C(=O)O)c1ccccc1 (relative stereo) [Example 370, Cyclopentanecarboxylic acid, 2-[(benzoylamino)methyl]-[(4'-chloro[1,1'-biphenyl]-4-yl)carbonyl]-, (1α,2β,5β)-] | 7.62 | 8.06 | 7.59 |  |  | 
O=C(O)c1cccc(CCC(CC(=O)c2ccc(-c3ccc(Cl)cc3)cc2)C(=O)O)c1 (stereo not drawn) [Example 148, [1,1'-Biphenyl]-4-butanoic acid, α-[2-(3-carboxyphenyl)ethyl]-4'-chloro-γ-oxo-] | 7.05 | 7.27 | 6.34 |  |  | 
CCCCNC(=O)c1ccccc1CCC(CC(=O)c1ccc(-c2ccc(Cl)cc2)cc1)C(=O)O (stereo not drawn) [Example 147, [1,1'-Biphenyl]-4-butanoic acid, α-[2-[2-[(butylamino)carbonyl]phenyl]ethyl]-4'-chloro-γ-oxo-] | 6.58 | 7.14 | 6.17 |  |  | 
COc1cccc(C(=O)OC[C@@H]2CC[C@H](C(=O)c3ccc(-c4ccc(Cl)cc4)cc3)[C@H]2C(=O)O)c1 (relative stereo) [Example 382, Benzoic acid, 3-methoxy-, [2-carboxy-3-[(4'-chloro[1,1'-biphenyl]-4-yl)carbonyl]cyclopentyl]methyl ester, (1α,2β,3α)-] | 7.38 | 7.19 | 7.41 |  |  | 
O=C(CC(CSc1ccccc1)C(=O)O)c1ccc(-c2ccc(O)cc2)cc1 (stereo not drawn) [Example 444, [1,1'-Biphenyl]-4-butanoic acid, 4'-hydroxy-γ-oxo-α-[(phenylthio)methyl]-] | > 5.30 | 7.37 | > 5.30 |  |  | 
CCN(CC)C(=O)c1cccc(CC[C@H](CC(=O)c2ccc(-c3ccc(Cl)cc3)cc2)C(=O)O)c1 [Example 146] | 5.62 | 6.27 | 5.57 |  |  | 
O=C(CC(CCN1C(=O)c2ccccc2C1=O)C(=O)O)c1ccc(-c2ccc(Cl)cc2)cc1 (racemic) [Example 267, 4-[4-(4-chlorophenyl)phenyl]-4-oxo-2-(2-phthalimidoethyl)butanoic acid] | 7.82 | 8.59 | 8.52 |  |  | 
O=C(CC(CCCc1ccccc1)C(=O)O)c1ccc(-c2ccc(OCC3CC3)cc2)cc1 (stereo not drawn) [Example 97, [1,1'-Biphenyl]-4-butanoic acid, 4'-(cyclopropylmethoxy)-γ-oxo-α-(3-phenylpropyl)-] | 6.82 | 7.32 | 6.64 |  |  | 
O=C(CC(CCCc1ccccc1)C(=O)O)c1ccc(-c2ccc(OCc3ccccc3)cc2)cc1 (stereo not drawn) [Example 99, 4-[4-(4-benzyloxyphenyl)phenyl]-4-oxo-2-(3-phenylpropyl)butanoic acid] | 7.44 | 7.59 | 6.08 |  |  | 
CCCCNC(=O)c1cccc(CCC(CC(=O)c2ccc(-c3ccc(Cl)cc3)cc2)C(=O)O)c1 (stereo not drawn) [Example 150, [1,1'-Biphenyl]-4-butanoic acid, α-[2-[3-[(butylamino)carbonyl]phenyl]ethyl]-4'-chloro-γ-oxo-] | 6.43 | 6.70 | 6.02 |  |  | 
COc1ccccc1C(=O)OC[C@@H]1CC[C@H](C(=O)c2ccc(-c3ccc(Cl)cc3)cc2)[C@H]1C(=O)O (relative stereo) [Example 381, Benzoic acid, 2-methoxy-, [2-carboxy-3-[(4'-chloro[1,1'-biphenyl]-4-yl)carbonyl]cyclopentyl]methyl ester, (1α,2β,3α)-] | 7.34 | 7.36 | 7.01 |  |  | 
CCCCCOc1ccc(-c2ccc(C(=O)C[C@@H](CCCc3ccccc3)C(=O)O)cc2)cc1 [Example 87, 4-[4-(4-pentyloxyphenyl)phenyl]-4-oxo-2R-(3-phenylpropyl)butanoic acid] |  |  |  | 8% | 40% | 0%
O=C(O)[C@@H]1[C@@H](CN2C(=O)c3ccccc3C2=O)OC[C@H]1C(=O)c1ccc(-c2ccc(Cl)cc2)cc1 (relative stereo) [Example 403, 3-Furancarboxylic acid, 4-[(4'-chloro[1,1'-biphenyl]-4-yl)carbonyl]-2-[(1,3-dihydro-1,3-dioxo-2H-isoindol-2-yl)methyl]tetrahydro-, (2α,3β,4α)-] | 7.77 | 8.19 | 8.24 |  |  | 
CCN(CC)C(=O)c1ccc(CCC(CC(=O)c2ccc(-c3ccc(Cl)cc3)cc2)C(=O)O)cc1 (stereo not drawn) [Example 151, [1,1'-Biphenyl]-4-butanoic acid, 4'-chloro-α-[2-[4-[(diethylamino)carbonyl]phenyl]ethyl]-γ-oxo-] | 6.43 | 7.15 | 6.22 |  |  | 
CC(=O)O[C@@H]1C[C@@H](C(=O)c2ccc(-c3ccc(Cl)cc3)cc2)[C@H]1C(=O)O (relative stereo) [Example 394, Cyclobutanecarboxylic acid, 2-(acetyloxy)-4-[(4'-chloro[1,1'-biphenyl]-4-yl)carbonyl]-, (1α,2β,4α)-] |  | 5.70 |  | 26% |  | 15%
